Assay [1] concerns the target T1, NLRP3 (Homo sapiens, UniProt Q96P20). The assay can be described thus: THP-1 cells pyroptosis assay (LPS + nigericin, resazurin read-out). It is filed as cell-based. Also on record: Seed THP-1 cells (25,000 cells/well) containing 1.0 μg/ml LPS; host or cells: THP-1 cells. Conditions: NLRP3 inhibitory activity, 1 μg/ml LPS, 5 μM nigericin. As for the experimental part:
The cells were routinely passaged and grown to confluency (˜10^6 cells/ml). On the day of the experiment, THP-1 cells were harvested and resuspended into RPMI medium (without FBS). The cells were then counted and viability (>90%) checked by Trypan blue (Sigma #T8154). […] To this diluted cell solution was added LPS (Sigma #L4524) to give a 1 μg/ml Final Assay Concentration (FAC). 40 μl of the final preparation was aliquoted into each well of a 96-well plate. The plate thus prepared was used for compound screening. The following method step-by-step assay was followed for compound screening. • 1. […] Incubate for 3 hrs at 37° C., 5% CO2 • 4. Add 5 μl nigericin (Sigma #N7143) (FAC 5 μM) to all wells • 5. Incubate for 1 hr at 37° C., 5% CO2 • 6. At the end of the incubation period, spin plates at 300×g for 3 mins and remove supernatant • 7. Then add 50 μl of resazurin (Sigma #R7017) (FAC 100 μM resazurin in RPMI medium without FBS) and incubate plates for a further 1-2 hrs at 37° C. and 5% CO2 • 8.

The target of assay [2] is T1, NLRP3. Description: Human whole blood IL-1β release assay (LPS + nigericin, AlphaLisa). It is filed as cell-based. Also on record: Human whole blood in Li-heparin tubes was obtained from healthy donors; from tissue; host or cells: human whole blood from healthy donors. Conditions: NLRP3 inhibitory activity, 1 μg/ml LPS, 10 μM nigericin, read-out: HWB IC50. As for the experimental part: For systemic delivery, the ability to inhibit NLRP3 when the compounds are present within the bloodstream is of great importance. For this reason, the NLRP3 inhibitory activity of a number of compounds in human whole blood was investigated in accordance with the following protocol. Human whole blood in Li-heparin tubes was obtained from healthy donors from a volunteer donor panel. • 1. […] Incubate for 3 hrs at 37° C., 5% CO2 • 4. Add 10 μl nigericin (Sigma #N7143) (10 μM FAC) to all wells • 5. Incubate for 1 hr at 37° C., 5% CO2 • 6. At the end of the incubation period, spin plates at 300×g for 5 mins to pellet cells and remove 20 μl of supernatant and add to 96-well v-bottom plates for IL-1β analysis (note: these plates containing the supernatants can be stored at -80° C. to be analysed at a later date) • 7. IL-1β was measured according to the manufacturer protocol (Perkin Elmer-AlphaLisa IL-1 Kit A[…]-5000) • 8.

In general, IC50 refers to the point on the concentration scale where inhibition reaches its midpoint.

Counter-ions that a name gives are not always drawn.

T1 sequence (Q96P20 whole entry): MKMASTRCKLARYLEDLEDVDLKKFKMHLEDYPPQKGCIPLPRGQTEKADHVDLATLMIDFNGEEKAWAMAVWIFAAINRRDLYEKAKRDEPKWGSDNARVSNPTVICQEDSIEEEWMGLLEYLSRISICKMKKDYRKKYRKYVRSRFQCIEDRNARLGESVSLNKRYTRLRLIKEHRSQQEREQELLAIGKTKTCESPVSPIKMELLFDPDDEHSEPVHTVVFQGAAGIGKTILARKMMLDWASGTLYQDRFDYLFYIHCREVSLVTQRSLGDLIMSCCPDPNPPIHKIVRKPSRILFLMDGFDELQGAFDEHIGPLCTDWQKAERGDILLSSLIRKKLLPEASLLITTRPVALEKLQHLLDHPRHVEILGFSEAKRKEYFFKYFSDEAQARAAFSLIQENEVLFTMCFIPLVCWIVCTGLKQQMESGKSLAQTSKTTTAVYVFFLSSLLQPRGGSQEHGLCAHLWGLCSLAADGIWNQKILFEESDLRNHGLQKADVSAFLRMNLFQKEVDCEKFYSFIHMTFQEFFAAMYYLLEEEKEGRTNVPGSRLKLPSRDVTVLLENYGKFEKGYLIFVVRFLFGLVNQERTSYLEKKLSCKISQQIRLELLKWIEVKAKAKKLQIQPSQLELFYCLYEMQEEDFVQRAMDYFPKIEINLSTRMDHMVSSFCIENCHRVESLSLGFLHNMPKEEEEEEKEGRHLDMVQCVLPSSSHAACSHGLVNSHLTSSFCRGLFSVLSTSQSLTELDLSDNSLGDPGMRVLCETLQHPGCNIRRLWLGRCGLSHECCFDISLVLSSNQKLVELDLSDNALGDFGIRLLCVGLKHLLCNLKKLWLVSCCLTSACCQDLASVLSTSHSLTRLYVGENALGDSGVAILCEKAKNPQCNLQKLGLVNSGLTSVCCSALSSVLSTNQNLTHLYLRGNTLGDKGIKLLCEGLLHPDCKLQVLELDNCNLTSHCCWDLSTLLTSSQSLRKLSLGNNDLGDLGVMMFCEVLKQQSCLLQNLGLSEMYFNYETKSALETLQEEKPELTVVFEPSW

As to `CC(C)c1cc(F)cc2c1C(C(=O)NS(=O)(=O)c1cc(C(C)(C)O)cs1)CC2(C)C` (single isomer, unassigned) [Example 8, 5-Fluoro-N-((4-(2-hydroxypropan-2-yl)thiophen-2-yl)sulfonyl)-7-isopropyl-3,3-dimethyl-2,3-dihydro-1H-indene-1-carboxamide, potassium salt (rotamer P1)], the results for the 50% inhibitory concentration (IC50) at NLRP3 [1] and at NLRP3 [2] were 0.5 to 1 µM and 1 to 5 µM, respectively.

Take `Cc1cc(C(C)(C)O)ccc1S(=O)(=O)NC(=O)Cc1c(C(C)C)cc(F)cc1C(C)C` [Example 2, 2-(4-Fluoro-2,6-diisopropylphenyl)-N-((4-(2-hydroxypropan-2-yl)-2-methylphenyl)sulfonyl)acetamide, potassium salt]: the concentration for half-maximal inhibition (IC50) at NLRP3 [1] is 0.25 to 0.5 µM; at NLRP3 [2], greater than 10 µM.

With `COc1cc(-c2cc(F)cc(C(C)C)c2CCC(=O)NS(=O)(=O)c2ccc(C(C)(C)O)cc2C)ccn1` [Example 3, 3-(4-Fluoro-2-isopropyl-6-(2-methoxypyridin-4-yl)phenyl)-N-((4-(2-hydroxypropan-2-yl)-2-methylphenyl)sulfonyl)propanamide], the IC50 at NLRP3 [1] was 1 to 5 µM; on NLRP3 [2], greater than 10 µM. Taken in the same sequence, the figures for `CC(C)c1cc(F)cc2c1C(C(=O)NS(=O)(=O)c1ccn(C3CC3)n1)CCC2(C)C` (stereo not drawn) [Example 6, N-((1-Cyclopropyl-1H-pyrazol-3-yl)sulfonyl)-6-fluoro-8-isopropyl-4,4-dimethyl-1,2,3,4-tetrahydronaphthalene-1-carboxamide] were 1 to 5 µM and 5 to 10 µM. For the compound `[2H]C([2H])([2H])N(CCn1ccc(S(=O)(=O)NC(=O)Nc2c3c(cc4c2CCC4)CCC3)n1)C([2H])([2H])[2H]` [Example 12, 1-(2-(Bis(methyl-d3)amino)ethyl)-N-((1,2,3,5,6,7-hexahydro-s-indacen-4-yl)carbamoyl)-1H-pyrazole-3-sulfonamide, potassium salt], the half-maximal inhibitory concentration (IC50) on NLRP3 [1] was less than 0.25 µM; on NLRP3 [2], 0.5 to 1 µM. For the compound `O=C(Nc1c2c(cc3c1CCC3)CCC2)NS(=O)(=O)c1cc[nH]n1` [Example 13, N-((1,2,3,5,6,7-Hexahydro-s-indacen-4-yl)carbamoyl)-1H-pyrazole-3-sulfonamide, potassium salt], the 50% inhibitory concentration (IC50) is 1 to 5 µM on NLRP3 [1] and greater than 10 µM on NLRP3 [2].

For the compound `O=C(Nc1c2c(cc3c1CCC3)C=CC2)NS(=O)(=O)c1cc[nH]n1` [Example 14, N-((1,2,3,5-Tetrahydro-s-indacen-4-yl)carbamoyl)-1H-pyrazole-3-sulfonamide, potassium salt], the results for the IC50 on NLRP3 [1] and on NLRP3 [2] were 0.5 to 1 µM and 5 to 10 µM, respectively. On to `CC(C)n1ccc(S(=O)(=O)NC(=O)Nc2c3c(cc4c2C(=O)CC4)CCC3)n1` [Example 15, 1-Isopropyl-N-((3-oxo-1,2,3,5,6,7-hexahydro-s-indacen-4-yl)carbamoyl)-1H-pyrazole-3-sulfonamide, potassium salt], for which the values for the IC50 at NLRP3 [1] and on NLRP3 [2] were 1 to 5 µM and greater than 10 µM, respectively. Regarding `C#CCCC1(CCn2ccc(S(=O)(=O)NC(=O)Nc3c4c(cc5c3CCC5)CCC4)n2)N=N1` [Example 16, 1-(2-(3-(But-3-yn-1-yl)-3H-diazirin-3-yl)ethyl)-N-((1,2,3,5,6,7-hexahydro-s-indacen-4-yl)carbamoyl)-1H-pyrazole-3-sulfonamide, potassium salt], the concentration for half-maximal inhibition (IC50) at NLRP3 [1] is less than 0.25 µM; on NLRP3 [2], 5 to 10 µM.

Take `NC/C(=C\F)COc1ccc(S(=O)(=O)NC(=O)Nc2c3c(cc4c2CCC4)CCC3)cc1` [Example 17, 4-((2-(Aminomethyl)-3-fluoroallyl)oxy)-N-((1,2,3,5,6,7-hexahydro-s-indacen-4-yl)carbamoyl)benzenesulfonamide, 2,2,2-trifluoroacetate salt]: the IC50 was 0.25 to 0.5 µM on NLRP3 [1] and 1 to 5 µM on NLRP3 [2]. Taken in the same sequence, the figures for `CCn1cc(S(=O)(=O)NC(=O)Nc2c3c(cc4c2CCC4)CCC3)nn1` [Example 19, 1-Ethyl-N-((1,2,3,5,6,7-hexahydro-s-indacen-4-yl)carbamoyl)-1H-1,2,3-triazole-4-sulfonamide, potassium salt] were 0.25 to 0.5 µM and 0.5 to 1 µM. In the case of `CC(C)n1ccc(S(=O)(=O)NC(=O)Nc2c3c(cc4c2CCC4O)CCC3)n1` (stereo not drawn) [Example 21, N-((1-Hydroxy-1,2,3,5,6,7-hexahydro-s-indacen-4-yl)carbamoyl)-1-isopropyl-1H-pyrazole-3-sulfonamide], the IC50 on NLRP3 [1] and at NLRP3 [2] was 5 to 10 µM each time. With `CC(C)n1ccc(S(=N)(=O)NC(=O)Cc2c3c(cc4c2CCC4)CCC3)n1` (stereo not drawn) [Example 24, 2-(1,2,3,5,6,7-Hexahydro-s-indacen-4-yl)-N-(1-isopropyl-1H-pyrazole-3-sulfonimidoyl)acetamide], the IC50 at NLRP3 [1] is 1 to 5 µM; at NLRP3 [2], greater than 10 µM. On to `CC(C)c1cccc(O[C@H]2CCOC2)c1NC(=O)NS(=O)(=O)c1ccn(C(C)C)n1` [Example 86, (S)-1-Isopropyl-N-((2-isopropyl-6-((tetrahydrofuran-3-yl)oxy)phenyl)carbamoyl)-1H-pyrazole-3-sulfonamide], for which the concentration for half-maximal inhibition (IC50) on NLRP3 [1] is 1 to 5 µM.

Regarding `CC(C)OS(=O)(=O)NC(=O)Nc1c2c(cc3c1CCC3)CCC2` [Example 87, Isopropyl (1,2,3,5,6,7-hexahydro-s-indacen-4-yl)carbamoylsulfamate, sodium salt], the IC50 at NLRP3 [1] was 1 to 5 µM. Same read-out and setting: the same measure for `COc1cc(-c2ccc3c(c2NC(=O)NCc2nnn[nH]2)CCC3)ccn1` [Example 88, 1((1H-Tetrazol-5-yl)methyl)-3-(5-(2-methoxypyridin-4-yl)-2,3-dihydro-1H-inden-4-yl)urea]: 5 to 10 µM; for `CC(C)(O)c1coc(S(=O)(=O)NC(=O)Cn2ncc3ccccc32)c1` [Example 89, N-((4-(2-Hydroxypropan-2-yl)furan-2-yl)sulfonyl)-2-(1H-indazol-1-yl)acetamide]: 1 to 5 µM; for `CC(C)(O)c1coc(S(=O)(=O)NC(=O)Cc2noc3ccccc23)c1` [Example 90, 2-(Benzo[d]isoxazol-3-yl)-N-((4-(2-hydroxypropan-2-yl)furan-2-yl)sulfonyl)acetamide]: 1 to 5 µM. The same measure, in the same setting: the same measure for `CC(C)(O)c1coc(S(=O)(=O)NC(=O)Cc2cc(Cl)cc(OC(F)(F)F)c2)c1` [Example 91, 2-(3-Chloro-5-(trifluoromethoxy)phenyl)-N-((4-(2-hydroxypropan-2-yl)furan-2-yl)sulfonyl)acetamide]: 1 to 5 µM; for `CC(C)(O)c1coc(S(=O)(=O)NC(=O)Cc2cc(Cl)cc(C(F)(F)F)c2)c1` [Example 92, 2-(3-Chloro-5-(trifluoromethyl)phenyl)-N-((4-(2-hydroxypropan-2-yl)furan-2-yl)sulfonyl)acetamide]: 5 to 10 µM; for `CC(C)(O)c1coc(S(=O)(=O)NC(=O)Cc2cccc(I)c2)c1` [Example 93, N-((4-(2-Hydroxypropan-2-yl)furan-2-yl)sulfonyl)-2-(3-iodophenyl)acetamide]: 5 to 10 µM. For `Cc1cc(Br)cc(CC(=O)NS(=O)(=O)c2cc(C(C)(C)O)co2)c1` [Example 94, 2-(3-Bromo-5-methylphenyl)-N-((4-(2-hydroxypropan-2-yl)furan-2-yl)sulfonyl)acetamide], at NLRP3 [1], the concentration for half-maximal inhibition (IC50) was in the range of 1 to 5 µM. For `COc1cc(-c2cc(F)cc(C(C)C)c2CC(=O)Nc2ncco2)ccn1` [Example 95, 2-(4-Fluoro-2-isopropyl-6-(2-methoxypyridin-4-yl)phenyl)-N-(oxazol-2-yl)acetamide], the 50% inhibitory concentration (IC50) on NLRP3 [1] was in the range of 5 to 10 µM. As for `CC(C)c1cc(F)cc(C(C)C)c1CC(=O)NS(=O)(=O)c1ccc2ccccc2c1` [Example 96, 2-(4-Fluoro-2,6-diisopropylphenyl)-1-(2-naphthylsulfonylamino)-1-ethanone], the IC50 on NLRP3 [1] lay within 1 to 5 µM. For the compound `CCOC(=O)CNC(=O)Nc1c2c(cc(C)c1-c1ccnc(OC3CCN(C)CC3)c1)CCC2` [Example 97, Ethyl 2-(3-(6-methyl-5-(2-((1-methylpiperidin-4-yl)oxy)pyridin-4-yl)-2,3-dihydro-1H-inden-4-yl)ureido)acetate], the concentration for half-maximal inhibition (IC50) at NLRP3 [1] was 1 to 5 µM. For the compound `CC(C)(O)c1coc(S(=O)(=O)NC(=O)Cc2cc(C(F)(F)F)cc(C(F)(F)F)c2)c1` [Example 98, 2-(3,5-bis(Trifluoromethyl)phenyl)-N-((4-(2-hydroxy-propan-2-yl)furan-2-yl)sulfonyl)acetamide], on NLRP3 [1], the IC50 lay within 1 to 5 µM.

The values are drawn from patent US20220106289A1, “NLRP3 INHIBITORS” (INFLAZOME LIMITED, priority 2018, published 2022).
